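GI50 marks 50% less growth. TGI is the concentration that stops growth completely.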
Legend:
Assay in all cases: NCI anticancer screen, dose series, 384-well format
786-0 renal = test system: 786-0 renal
A498 renal = test system: A498 renal
A549 NSCLC = test system: A549 NSCLC
ACHN renal = test system: ACHN renal
BT-549 breast = test system: BT-549 breast
CAKI-1 renal = test system: CAKI-1 renal
CCRF-CEM leukemia = test system: CCRF-CEM leukemia
COLO 205 colon = test system: COLO 205 colon
DU-145 prostate = test system: DU-145 prostate
EKVX NSCLC = test system: EKVX NSCLC
HCC-2998 colon = test system: HCC-2998 colon
HCT-116 colon = test system: HCT-116 colon
HCT-15 colon = test system: HCT-15 colon
HL-60(TB) leukemia = test system: HL-60(TB) leukemia
HOP-62 NSCLC = test system: HOP-62 NSCLC
HOP-92 NSCLC = test system: HOP-92 NSCLC
HS 578T breast = test system: HS 578T breast
HT29 colon = test system: HT29 colon
IGROV1 ovarian = test system: IGROV1 ovarian
K-562 leukemia = test system: K-562 leukemia
KM12 colon = test system: KM12 colon
LOX IMVI melanoma = test system: LOX IMVI melanoma
M14 melanoma = test system: M14 melanoma
MALME-3M melanoma = test system: MALME-3M melanoma
MCF7 breast = test system: MCF7 breast
MDA-MB-231 breast = test system: MDA-MB-231 breast
MDA-MB-435 melanoma = test system: MDA-MB-435 melanoma
MDA-MB-468 breast = test system: MDA-MB-468 breast
MOLT-4 leukemia = test system: MOLT-4 leukemia
NCI-H226 lung = test system: NCI-H226 lung
NCI-H23 lung = test system: NCI-H23 lung
NCI-H322M lung = test system: NCI-H322M lung
NCI-H460 NSCLC = test system: NCI-H460 NSCLC
NCI-H522 lung = test system: NCI-H522 lung
NCI/ADR-RES ovarian = test system: NCI/ADR-RES ovarian
OVCAR-3 ovarian = test system: OVCAR-3 ovarian
OVCAR-4 ovarian = test system: OVCAR-4 ovarian
OVCAR-5 ovarian = test system: OVCAR-5 ovarian
PC-3 prostate = test system: PC-3 prostate
RPMI-8226 leukemia = test system: RPMI-8226 leukemia
RXF 393 renal = test system: RXF 393 renal
SF-268 CNS = test system: SF-268 CNS
SF-295 CNS = test system: SF-295 CNS
SF-539 CNS = test system: SF-539 CNS
SK-MEL-2 melanoma = test system: SK-MEL-2 melanoma
SK-MEL-28 melanoma = test system: SK-MEL-28 melanoma
SK-MEL-5 melanoma = test system: SK-MEL-5 melanoma
SK-OV-3 ovarian = test system: SK-OV-3 ovarian
SN12C renal = test system: SN12C renal
SNB-19 CNS = test system: SNB-19 CNS
SNB-75 CNS = test system: SNB-75 CNS
SR leukemia = test system: SR leukemia
SW-620 colon = test system: SW-620 colon
T-47D breast = test system: T-47D breast
TK-10 renal = test system: TK-10 renal
U251 glioblastoma = test system: U251 glioblastoma
UACC-257 melanoma = test system: UACC-257 melanoma
UACC-62 melanoma = test system: UACC-62 melanoma
UO-31 renal = test system: UO-31 renal

Which GI50 ([…]-0 renal) does the source give for `NCCCCN(Cc1nc2ccccc2[nH]1)[C@H]1CCCc2cccnc21` here?
The GI50 was 8.34 µM.

What about the TGI (786-0 renal) of the same compound?
The TGI was 31.3 µM.

And the GI50 (A498 renal)?
Its GI50 is 14.7 µM.

And the TGI (A498 renal)?
The TGI was 44.2 µM.

What about the GI50 (A549 NSCLC) of the same compound?
Its GI50 is 9.68 µM.

And the TGI (A549 NSCLC)?
Its TGI is 28.4 µM.

And the GI50 (ACHN renal)?
The GI50 was 17.3 µM.

What about the TGI (ACHN renal) of the same compound?
The TGI was 35.9 µM.

And the GI50 (BT-549 breast)?
Its GI50 is 7.45 µM.

And the TGI (BT-549 breast)?
Its TGI is 28.5 µM.

What about the GI50 (CAKI-1 renal) of the same compound?
The GI50 was 7.89 µM.

What about the TGI (CAKI-1 renal) of the same compound?
The TGI was 22.5 µM.

What about the GI50 (CCRF-CEM leukemia) of the same compound?
Its GI50 is 5.43 µM.

And the TGI (CCRF-CEM leukemia)?
Its TGI is 18.5 µM.

And the GI50 (COLO 205 colon)?
Its GI50 is 2.35 µM.

What about the TGI (COLO 205 colon) of the same compound?
Its TGI is 5.73 µM.

What about the GI50 (DU-145 prostate) of the same compound?
Its GI50 is 7.23 µM.

And the TGI (DU-145 prostate)?
Its TGI is > 100 µM.

And the GI50 (EKVX NSCLC)?
Its GI50 is 8.83 µM.

And the TGI (EKVX NSCLC)?
Its TGI is 24.5 µM.

And the GI50 (HCC-2998 colon)?
The GI50 was 4.63 µM.

What about the TGI (HCC-2998 colon) of the same compound?
Its TGI is 18.4 µM.

What about the GI50 (HCT-116 colon) of the same compound?
Its GI50 is 5.3 µM.

And the TGI (HCT-116 colon)?
Its TGI is 20.5 µM.

What about the GI50 (HCT-15 colon) of the same compound?
The GI50 was 13.9 µM.

What about the TGI (HCT-15 colon) of the same compound?
Its TGI is 32.2 µM.

And the GI50 (HL-60(TB) leukemia)?
Its GI50 is 1.35 µM.

And the TGI (HL-60(TB) leukemia)?
Its TGI is 2.82 µM.

What about the GI50 (HOP-62 NSCLC) of the same compound?
The GI50 was 3.94 µM.

What about the TGI (HOP-62 NSCLC) of the same compound?
The TGI was 19 µM.

What about the GI50 (HOP-92 NSCLC) of the same compound?
The GI50 was 2.7 µM.

And the TGI (HOP-92 NSCLC)?
The TGI was 13.4 µM.

And the GI50 (HS 578T breast)?
Its GI50 is 4.57 µM.

What about the TGI (HS 578T breast) of the same compound?
The TGI was 18.4 µM.

And the GI50 (HT29 colon)?
The GI50 was 3.6 µM.

And the TGI (HT29 colon)?
Its TGI is 13.4 µM.

And the GI50 (IGROV1 ovarian)?
Its GI50 is 5.7 µM.

What about the TGI (IGROV1 ovarian) of the same compound?
The TGI was 19.1 µM.

What about the GI50 (K-562 leukemia) of the same compound?
Its GI50 is 10.2 µM.

And the TGI (K-562 leukemia)?
The TGI was 22.5 µM.

And the GI50 (KM12 colon)?
The GI50 was 6.23 µM.

And the TGI (KM12 colon)?
The TGI was 33.8 µM.

And the GI50 (LOX IMVI melanoma)?
Its GI50 is 9.28 µM.

What about the TGI (LOX IMVI melanoma) of the same compound?
Its TGI is 23 µM.

And the GI50 (M14 melanoma)?
The GI50 was 5.75 µM.

What about the TGI (M14 melanoma) of the same compound?
The TGI was 18.4 µM.

And the GI50 (MALME-3M melanoma)?
Its GI50 is 11.9 µM.

And the TGI (MALME-3M melanoma)?
Its TGI is 24.3 µM.

And the GI50 (MCF7 breast)?
The GI50 was 7.6 µM.

What about the TGI (MCF7 breast) of the same compound?
The TGI was 25.9 µM.

What about the GI50 (MDA-MB-231 breast) of the same compound?
The GI50 was 4.42 µM.

What about the TGI (MDA-MB-231 breast) of the same compound?
Its TGI is 23.6 µM.

And the GI50 (MDA-MB-435 melanoma)?
Its GI50 is 7.39 µM.

And the TGI (MDA-MB-435 melanoma)?
Its TGI is 23.3 µM.

What about the GI50 (MDA-MB-468 breast) of the same compound?
The GI50 was 2.81 µM.

And the TGI (MDA-MB-468 breast)?
The TGI was 8.14 µM.

And the GI50 (MOLT-4 leukemia)?
The GI50 was 1.31 µM.

What about the TGI (MOLT-4 leukemia) of the same compound?
The TGI was 2.84 µM.

What about the GI50 (NCI-H226 lung) of the same compound?
The GI50 was 10.4 µM.

What about the TGI (NCI-H226 lung) of the same compound?
The TGI was 23.5 µM.

And the GI50 (NCI-H23 lung)?
Its GI50 is 4.94 µM.

And the TGI (NCI-H23 lung)?
The TGI was 22.9 µM.

And the GI50 (NCI-H322M lung)?
The GI50 was 4.64 µM.

What about the TGI (NCI-H322M lung) of the same compound?
Its TGI is 24.6 µM.

What about the GI50 (NCI-H460 NSCLC) of the same compound?
Its GI50 is 4.47 µM.

What about the TGI (NCI-H460 NSCLC) of the same compound?
Its TGI is 18.1 µM.

And the GI50 (NCI-H522 lung)?
The GI50 was 2.68 µM.

And the TGI (NCI-H522 lung)?
The TGI was 18.6 µM.

What about the GI50 (NCI/ADR-RES ovarian) of the same compound?
Its GI50 is 16 µM.

What about the TGI (NCI/ADR-RES ovarian) of the same compound?
Its TGI is 31.6 µM.

And the GI50 (OVCAR-3 ovarian)?
The GI50 was 2.2 µM.

What about the TGI (OVCAR-3 ovarian) of the same compound?
The TGI was 15.9 µM.

What about the GI50 (OVCAR-4 ovarian) of the same compound?
The GI50 was 4.66 µM.

And the TGI (OVCAR-4 ovarian)?
Its TGI is 26.2 µM.

And the GI50 (OVCAR-5 ovarian)?
Its GI50 is 5.13 µM.

What about the TGI (OVCAR-5 ovarian) of the same compound?
Its TGI is 28.2 µM.

And the GI50 (PC-3 prostate)?
The GI50 was 6.25 µM.

What about the TGI (PC-3 prostate) of the same compound?
The TGI was 40.8 µM.

And the GI50 (RPMI-8226 leukemia)?
Its GI50 is 5.63 µM.

And the TGI (RPMI-8226 leukemia)?
The TGI was 19.1 µM.

And the GI50 (RXF 393 renal)?
Its GI50 is 4.56 µM.

What about the TGI (RXF 393 renal) of the same compound?
The TGI was 21.4 µM.

And the GI50 (SF-268 CNS)?
Its GI50 is 5.51 µM.

And the TGI (SF-268 CNS)?
Its TGI is 35.1 µM.

And the GI50 (SF-295 CNS)?
Its GI50 is 8.81 µM.

And the TGI (SF-295 CNS)?
The TGI was 22.1 µM.

What about the GI50 (SF-539 CNS) of the same compound?
Its GI50 is 9.07 µM.

What about the TGI (SF-539 CNS) of the same compound?
Its TGI is 21.3 µM.

And the GI50 (SK-MEL-2 melanoma)?
The GI50 was 20.3 µM.

What about the TGI (SK-MEL-2 melanoma) of the same compound?
Its TGI is 34.7 µM.

And the GI50 (SK-MEL-28 melanoma)?
Its GI50 is 11.4 µM.

And the TGI (SK-MEL-28 melanoma)?
The TGI was 24.3 µM.

What about the GI50 (SK-MEL-5 melanoma) of the same compound?
The GI50 was 2.62 µM.

And the TGI (SK-MEL-5 melanoma)?
The TGI was 15.9 µM.

What about the GI50 (SK-OV-3 ovarian) of the same compound?
Its GI50 is 9.63 µM.

What about the TGI (SK-OV-3 ovarian) of the same compound?
The TGI was 40.4 µM.

And the GI50 (SN12C renal)?
Its GI50 is 9.33 µM.

And the TGI (SN12C renal)?
Its TGI is 52.2 µM.

What about the GI50 (SNB-19 CNS) of the same compound?
The GI50 was 18 µM.

And the TGI (SNB-19 CNS)?
The TGI was > 100 µM.

And the GI50 (SNB-75 CNS)?
Its GI50 is 4.2 µM.

What about the TGI (SNB-75 CNS) of the same compound?
Its TGI is 18.1 µM.

What about the GI50 (SR leukemia) of the same compound?
Its GI50 is 1.3 µM.

What about the TGI (SR leukemia) of the same compound?
Its TGI is 2.59 µM.

What about the GI50 (SW-620 colon) of the same compound?
Its GI50 is 10.4 µM.

And the TGI (SW-620 colon)?
Its TGI is 34.1 µM.

What about the GI50 (T-47D breast) of the same compound?
The GI50 was 12.7 µM.

And the TGI (T-47D breast)?
Its TGI is 32.1 µM.

And the GI50 (TK-10 renal)?
Its GI50 is 10.6 µM.

And the TGI (TK-10 renal)?
Its TGI is 23.6 µM.

What about the GI50 (U251 glioblastoma) of the same compound?
The GI50 was 6.5 µM.

And the TGI (U251 glioblastoma)?
The TGI was 25.9 µM.

What about the GI50 (UACC-257 melanoma) of the same compound?
Its GI50 is 7.89 µM.

And the TGI (UACC-257 melanoma)?
The TGI was 20.5 µM.

And the GI50 (UACC-62 melanoma)?
Its GI50 is 10.1 µM.

And the TGI (UACC-62 melanoma)?
The TGI was 22.3 µM.

What about the GI50 (UO-31 renal) of the same compound?
The GI50 was 13.4 µM.

And the TGI (UO-31 renal)?
The TGI was 29.1 µM.

From PubChem BioAssay (NCI)
